The target in this assay is T1, MtDapE (Mycobacterium tuberculosis, UniProt P9WHS9).
T1 construct: gene dapE
As to the kind of experiment: inhibition in coupled assay, preincubated with inhibitor, NADPH at […] nm. Type of assay: biochemical. Conditions: for inhibition at 1000 µM: read-out: % inhibition at 1 mM.

T1 sequence (P9WHS9 whole entry, looked up): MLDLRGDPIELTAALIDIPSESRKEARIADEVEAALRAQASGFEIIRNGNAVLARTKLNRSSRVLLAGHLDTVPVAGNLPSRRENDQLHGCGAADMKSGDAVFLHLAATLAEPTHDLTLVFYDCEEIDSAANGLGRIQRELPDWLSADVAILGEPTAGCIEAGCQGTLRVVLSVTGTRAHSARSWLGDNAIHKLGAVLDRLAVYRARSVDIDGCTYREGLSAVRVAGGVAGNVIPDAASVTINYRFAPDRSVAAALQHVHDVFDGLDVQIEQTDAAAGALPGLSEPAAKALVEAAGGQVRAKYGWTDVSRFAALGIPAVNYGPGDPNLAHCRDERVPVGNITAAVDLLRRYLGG

By inhibition is commonly meant the drop in the measured response relative to a control, in per cent. On to `OB(O)c1cccs1` [2-thiopheneboronic acid], for which the inhibition at 10000 µM (read-out: % inhibition at 10 mM) is 22.3%.

Regarding `CC(C)(S)[C@H](N)C(=O)O` [L-penicillamine], the inhibition at 1000 µM turned out to be 79.4%.

For `C[C@H](CS)C(=O)N1CCC[C@H]1C(=O)O` [L-captopril], the inhibition at 1000 µM came out at 23.3%.

The values are drawn from publication PMC4791643, “Reconstruction of diaminopimelic acid biosynthesis allows characterisation of Mycobacterium tuberculosis N-succinyl-L,L-diaminopimelic acid desuccinylase” (Scientific Reports, 2016).
